Experiments:
[1] = test system: Dutch Belted rabbits; assay: 28 day repeated dose toxicology and toxicokinetic study by ocular topical administration in Dutch Belted rabbits (Example 12); conditions: rabbit, in vivo, topical or ocular; for Tmax: male
Description: Plasma concentrations of levcromakalim were evaluated in DB rabbits after twice a day (BID) oculus uterque (OU, both eyes) topical ophthalmic (T.O.) administration of formulation 3d for 28 days at dose levels of 0, 0.012, 0.03, and 0.06 mg/eye/dose.
Plasma concentrations of levcromakalim were evaluated in DB rabbits after BID OU T.O. administration of three concentrations of formulation 3d at dose levels of 0, 0.012, 0.03, and 0.06 mg/eye/dose (0, 0.024, 0.06, and 0.12 mg/eye/day respectively or 0.030% [1.0 mM], 0.075% [2.5 mM], or 0.15% [5 mM] respectively) for 28 days. Plasma was collected from 3 animals/dose group at pre-dose, 0.5, 1, 2, 3, 4, 6, and 12 hours post-first dose on Days 1 and 28.

[2] = test system: KATP channels; conditions: in the presence of ATP; cited from earlier work
[3] = test system: rabbit eyes; conditions: 0.5% cromakalim in 0.02 M phosphate buffer; cited from earlier work
[4] = test system: patients with primary open-angle glaucoma; conditions: cited from earlier work

## CC1(C)Oc2ccc(C#N)cc2[C@@H](N2CCCC2=O)[C@@H]1O [levcromakalim]
[1]; female, 0.03 mg
  AUCtlast: 3.99 ng·h/mL
[1]; female, 0.06 mg
  t1/2: 1.77
[1]; 0.012 mg
  Tmax: 70.2 min
[1]; 0.06 mg
  Tmax: 42 min

## CC1(C)Oc2ccc(C#N)cc2C(N2CCCC2=O)C1O (centres unmarked) [cromakalim]
[2]
  Increase of open-state probability (Popen) of single KATP channels: more than 9 fold
[3]
  Effect on IOP after topical administration: tended to increase IOP

## CC1(C)Oc2ccc(C#N)cc2[C@@H](N2CCCC2=O)[C@@H]1OP(=O)(O)O [QLS-101]
[4]; in vivo
  Hyperemia (eye redness): no evidence of hyperemia
[4]; patients with primary open-angle glaucoma
  Efficacy: positive efficacy signal
